# Source: ChEMBL document CHEMBL1201862, “PubChem BioAssay data set” (2004)
# The source made the active and inactive calls.
# What was measured:
# [1] = SAR analysis of small molecule activators of Apaf-1 using a LZ-Caspase-9/Caspase-3 Fluorescent Selectivity assay - Set 2.; assay type: functional; details: read-out: EC50_Mean
# [2] = molecular target: T1, Apoptotic protease-activating factor 1 (Homo sapiens, UniProt O14727); experiment: SAR analysis of small molecule Activators of Apaf-1 in a Fluorescent assay - set 2.; assay type: functional; details: read-out: EC50_Mean
# T1 sequence (O14727 whole entry): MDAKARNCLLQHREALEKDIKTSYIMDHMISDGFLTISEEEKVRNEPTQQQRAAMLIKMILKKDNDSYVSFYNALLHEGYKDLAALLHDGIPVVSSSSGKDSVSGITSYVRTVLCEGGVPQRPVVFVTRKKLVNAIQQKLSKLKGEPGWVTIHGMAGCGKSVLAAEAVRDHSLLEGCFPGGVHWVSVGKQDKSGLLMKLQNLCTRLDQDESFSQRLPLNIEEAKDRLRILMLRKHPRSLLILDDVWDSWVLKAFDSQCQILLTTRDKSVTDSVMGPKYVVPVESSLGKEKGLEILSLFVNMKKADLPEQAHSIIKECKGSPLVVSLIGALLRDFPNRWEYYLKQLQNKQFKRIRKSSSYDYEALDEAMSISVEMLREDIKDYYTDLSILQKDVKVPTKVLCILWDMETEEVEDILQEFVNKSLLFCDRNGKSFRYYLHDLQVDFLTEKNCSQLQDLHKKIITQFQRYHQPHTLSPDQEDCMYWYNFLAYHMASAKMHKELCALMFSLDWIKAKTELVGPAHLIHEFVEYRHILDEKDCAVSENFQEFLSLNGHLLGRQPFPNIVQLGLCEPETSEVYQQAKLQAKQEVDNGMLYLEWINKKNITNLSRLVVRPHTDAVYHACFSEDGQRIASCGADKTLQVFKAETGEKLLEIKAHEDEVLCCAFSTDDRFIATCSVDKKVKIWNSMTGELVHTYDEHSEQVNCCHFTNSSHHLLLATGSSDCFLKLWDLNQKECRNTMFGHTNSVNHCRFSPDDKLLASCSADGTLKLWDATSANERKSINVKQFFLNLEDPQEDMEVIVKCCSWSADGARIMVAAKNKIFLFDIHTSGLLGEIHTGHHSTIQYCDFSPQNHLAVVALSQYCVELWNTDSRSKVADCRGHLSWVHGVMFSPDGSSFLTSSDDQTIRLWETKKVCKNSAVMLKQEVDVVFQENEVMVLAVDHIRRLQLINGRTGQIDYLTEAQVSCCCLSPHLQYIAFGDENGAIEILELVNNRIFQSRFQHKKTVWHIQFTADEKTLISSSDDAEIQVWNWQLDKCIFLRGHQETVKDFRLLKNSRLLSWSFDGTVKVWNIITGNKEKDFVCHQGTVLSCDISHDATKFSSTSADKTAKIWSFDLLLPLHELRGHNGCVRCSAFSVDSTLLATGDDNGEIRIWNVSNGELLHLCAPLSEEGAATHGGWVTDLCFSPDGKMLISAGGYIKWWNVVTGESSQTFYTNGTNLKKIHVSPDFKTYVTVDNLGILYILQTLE
# [3] = HEp-2 cell cytotoxicity, dose response, cytotoxicity control for RSV inhibitor project, HTS (AID 2410); assay type: functional; details: human respiratory syncytial virus
# CHO-K1 = experiment: (§1) Counterscreen for antagonists of the orexin 1 receptor (OX1R; HCRTR1): Homogeneous time resolved fluorescence (HTRF)-based cell-based dose response assay to identify antagonists of the parental CHO-K1 cell line. [Related pubchem assays (depositor defined):AID434989, AID435008, AID463079, AID485270, AID492963, AID492964, AID492965, AID493232, AID504699, AID504701]; assay type: functional; details: Cricetulus griseus
# [4] = as §1, with “Fluorescence-based” for “Homogeneous time resolved fluorescence (HTRF)-based”, “cell-based high throughput” for “cell-based”, “CHO” for “CHO-K1”; assay type: functional
# [5] = molecular target: T2, Orexin/Hypocretin receptor type 1 (Homo sapiens, UniProt O43613); experiment: Homogeneous Time Resolved Fluorescence (HTRF)-based cell-based high throughput dose response assay for antagonists of the orexin 1 receptor (OX1R; HCRTR1). [Related pubchem assays (depositor defined):AID434989, AID435008, AID463079, AID485270, AID492963, AID492964, AID492965, AID493232, AID504717, AID504718]; assay type: functional
# T2 sequence (O43613 whole entry): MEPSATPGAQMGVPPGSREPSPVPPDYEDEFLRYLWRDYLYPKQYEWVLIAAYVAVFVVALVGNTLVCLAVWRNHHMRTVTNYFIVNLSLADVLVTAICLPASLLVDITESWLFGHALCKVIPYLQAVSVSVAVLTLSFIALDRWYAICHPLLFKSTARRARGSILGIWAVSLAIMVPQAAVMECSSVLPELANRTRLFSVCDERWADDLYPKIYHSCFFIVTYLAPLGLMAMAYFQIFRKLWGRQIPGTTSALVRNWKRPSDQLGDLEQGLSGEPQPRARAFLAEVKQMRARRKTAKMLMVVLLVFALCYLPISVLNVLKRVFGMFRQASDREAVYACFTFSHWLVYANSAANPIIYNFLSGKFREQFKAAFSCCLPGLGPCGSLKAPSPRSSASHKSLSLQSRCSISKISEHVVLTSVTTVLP
# [6] = molecular target: T2, Orexin/Hypocretin receptor type 1; experiment: Fluorescence-based cell-based high throughput dose response assay for antagonists of the orexin 1 receptor (OX1R; HCRTR1). [Related pubchem assays (depositor defined):AID434989, AID435008, AID463079, AID485270, AID492963, AID492964, AID492965, AID493232, AID504717, AID504718]; assay type: functional
# H9c2 = experiment: cells; assay type: functional, cell-based; details: Rattus norvegicus, H9c2, Myocardium;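 also: confirmatory concentration-response retest of ultra-high-throughput screening hits for modulation of myocardial damage; cell death induced by hydrogen peroxide oxidative stress; compound pretreatment for 60 min then peroxide exposure for 2 h; potency is for protecting the cells against peroxide damage rather than for killing them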
# Orexin receptor type 2 [7] = molecular target: T3, Orexin receptor type 2 (Homo sapiens, UniProt O43614); experiment: Counterscreen assay for antagonists of the orexin 1 receptor (OX1R; HCRTR1): Fluorescence-based cell-based dose response assay for antagonists of the orexin 2 receptor (OX2R; HCRTR2), run by assay provider.; assay type: functional
# T3 sequence (O43614 whole entry): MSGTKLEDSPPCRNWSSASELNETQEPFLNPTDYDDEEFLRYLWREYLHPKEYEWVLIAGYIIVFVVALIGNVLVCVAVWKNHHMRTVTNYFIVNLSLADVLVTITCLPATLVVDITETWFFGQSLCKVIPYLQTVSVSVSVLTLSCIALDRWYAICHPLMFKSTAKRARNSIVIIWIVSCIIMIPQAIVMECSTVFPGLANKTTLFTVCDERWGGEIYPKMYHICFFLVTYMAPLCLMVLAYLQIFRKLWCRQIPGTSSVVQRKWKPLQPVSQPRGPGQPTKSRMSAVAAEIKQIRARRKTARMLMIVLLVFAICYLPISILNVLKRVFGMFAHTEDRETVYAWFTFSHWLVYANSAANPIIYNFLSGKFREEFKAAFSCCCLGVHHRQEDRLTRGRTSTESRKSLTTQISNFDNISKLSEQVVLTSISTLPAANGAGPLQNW
# Orexin receptor type 2 [8] = molecular target: T3, Orexin receptor type 2; experiment: Counterscreen assay for antagonists of the orexin 1 receptor (OX1R; HCRTR1): Homogeneous Time Resolved Fluorescence (HTRF)-based cell-based dose response assay for antagonists of the orexin 2 receptor (OX2R; HCRTR2), run by assay provider.; assay type: functional
# Candida albicans [9] = experiment: growth inhibition of resistant C. albicans, dose response, CaCi-8, fluconazole, Alamar Blue, dry powder (AID 488807); assay type: functional, organism-based
# Candida albicans [10] = experiment: single-agent growth inhibition of C. albicans, dose response, counter-screen for antifungal drug resistance project, C. albicans CaCi-2, dry powder (AID 488802); assay type: functional, organism-based
# NIH3T3 = experiment: cytotoxicity in NIH-3T3 fibroblasts, dose response, cytotoxicity control for antifungal drug resistance project, cell-based, Alamar Blue, fluconazole, dry powder (AID 488809); assay type: functional; details: Mus musculus
# [11] = molecular target: Glycogen synthase kinase-3 alpha (Homo sapiens, UniProt P49840); experiment: Inhibition of Human GSK-3 alpha Activity Measured in Biochemical System Using Microfluidics - 2063-06_Inhibitor_Dose_DryPowder_Activity_Set2. [Related pubchem assays (depositor defined):AID2709]
# Glycogen synthase kinase-3 alpha, sequence (P49840 whole entry): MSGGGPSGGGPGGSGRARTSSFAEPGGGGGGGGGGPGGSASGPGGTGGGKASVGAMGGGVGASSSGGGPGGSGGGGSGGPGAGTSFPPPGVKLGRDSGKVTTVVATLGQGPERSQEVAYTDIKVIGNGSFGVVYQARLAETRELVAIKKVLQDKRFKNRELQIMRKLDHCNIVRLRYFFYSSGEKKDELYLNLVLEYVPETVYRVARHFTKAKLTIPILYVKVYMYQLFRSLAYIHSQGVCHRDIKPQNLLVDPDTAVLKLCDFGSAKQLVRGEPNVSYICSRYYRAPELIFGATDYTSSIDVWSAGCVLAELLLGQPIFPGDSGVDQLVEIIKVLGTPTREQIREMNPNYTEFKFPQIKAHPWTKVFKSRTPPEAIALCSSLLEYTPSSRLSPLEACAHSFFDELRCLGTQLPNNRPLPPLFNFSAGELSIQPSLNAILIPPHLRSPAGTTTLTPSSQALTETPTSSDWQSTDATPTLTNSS
# [12] = molecular target: Glycogen synthase kinase-3 beta (Homo sapiens, UniProt P49841); experiment: Inhibition of Human GSK-3 beta Activity Measured in Biochemical System Using Microfluidics - 2063-05_Inhibitor_Dose_DryPowder_Activity_Set2. [Related pubchem assays (depositor defined):AID2709]
# Glycogen synthase kinase-3 beta, sequence (P49841 whole entry): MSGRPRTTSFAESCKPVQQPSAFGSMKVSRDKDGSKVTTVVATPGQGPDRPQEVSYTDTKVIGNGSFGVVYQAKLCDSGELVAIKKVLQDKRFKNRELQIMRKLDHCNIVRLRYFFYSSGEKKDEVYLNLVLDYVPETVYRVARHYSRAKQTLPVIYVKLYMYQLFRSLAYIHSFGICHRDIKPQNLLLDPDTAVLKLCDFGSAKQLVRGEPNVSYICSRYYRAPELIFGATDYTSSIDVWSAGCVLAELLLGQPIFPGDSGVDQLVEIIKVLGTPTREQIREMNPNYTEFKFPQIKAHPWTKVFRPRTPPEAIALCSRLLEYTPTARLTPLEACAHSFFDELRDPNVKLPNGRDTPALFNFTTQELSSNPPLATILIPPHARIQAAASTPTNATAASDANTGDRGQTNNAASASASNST
# [13] = molecular target: Cyclin-dependent kinase 5/CDK5 activator 1 (Homo sapiens, UniProt Q00535); experiment: CDK5-p25 kinase inhibitors, specificity check, dose response, selectivity assay for GSK-3 alpha inhibitor project, biochemical, microfluidic mobility shift, dry powder (AID 588430)
# Cyclin-dependent kinase 5/CDK5 activator 1, sequence (Q00535 whole entry): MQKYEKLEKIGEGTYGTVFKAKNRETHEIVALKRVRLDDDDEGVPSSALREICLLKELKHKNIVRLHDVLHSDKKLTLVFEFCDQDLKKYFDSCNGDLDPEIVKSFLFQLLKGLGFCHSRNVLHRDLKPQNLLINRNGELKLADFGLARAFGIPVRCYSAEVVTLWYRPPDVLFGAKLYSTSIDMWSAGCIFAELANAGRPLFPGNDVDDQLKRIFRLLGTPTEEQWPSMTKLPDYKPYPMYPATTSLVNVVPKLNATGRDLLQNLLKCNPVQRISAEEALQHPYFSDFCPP
# Cyclin-dependent kinase 5/CDK5 activator 1, sequence (Q15078 whole entry, further chain): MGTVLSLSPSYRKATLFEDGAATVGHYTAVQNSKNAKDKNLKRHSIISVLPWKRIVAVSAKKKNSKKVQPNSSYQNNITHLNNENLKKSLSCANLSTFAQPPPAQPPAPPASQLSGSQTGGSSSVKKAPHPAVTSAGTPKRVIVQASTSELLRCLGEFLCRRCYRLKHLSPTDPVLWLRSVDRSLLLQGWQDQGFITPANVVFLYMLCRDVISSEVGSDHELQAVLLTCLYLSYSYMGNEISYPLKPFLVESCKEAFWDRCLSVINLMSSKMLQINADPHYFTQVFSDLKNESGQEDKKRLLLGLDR
# [14] = molecular target: T4, Neuropeptides B/W receptor type 1 (Homo sapiens, UniProt P48145); experiment: GPR7 antagonist potency, late-stage follow-up, cell-based, fluorescence, dose response, set 5 (AID 588566); assay type: functional
# T4 sequence (P48145 whole entry): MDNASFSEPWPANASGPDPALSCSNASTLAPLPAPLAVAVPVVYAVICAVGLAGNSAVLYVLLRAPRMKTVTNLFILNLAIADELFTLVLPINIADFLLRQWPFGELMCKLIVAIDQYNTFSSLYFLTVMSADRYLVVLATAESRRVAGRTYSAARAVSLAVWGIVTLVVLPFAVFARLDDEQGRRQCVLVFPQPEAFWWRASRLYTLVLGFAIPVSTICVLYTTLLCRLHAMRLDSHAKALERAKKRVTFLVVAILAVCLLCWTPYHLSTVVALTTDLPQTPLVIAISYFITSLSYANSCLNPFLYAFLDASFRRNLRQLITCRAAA
# [15] = molecular target: Melanin-concentrating hormone receptor 1 (Homo sapiens, UniProt Q99705); experiment: Late-stage fluorescence-based counterscreen for antagonists of the G-protein coupled receptor 7 (GPR7): cell-based dose response assay to identify antagonists of the melanin-concentrating hormone receptor 1 (MCHR1) Set 5.; assay type: functional
# Melanin-concentrating hormone receptor 1, sequence (Q99705 whole entry): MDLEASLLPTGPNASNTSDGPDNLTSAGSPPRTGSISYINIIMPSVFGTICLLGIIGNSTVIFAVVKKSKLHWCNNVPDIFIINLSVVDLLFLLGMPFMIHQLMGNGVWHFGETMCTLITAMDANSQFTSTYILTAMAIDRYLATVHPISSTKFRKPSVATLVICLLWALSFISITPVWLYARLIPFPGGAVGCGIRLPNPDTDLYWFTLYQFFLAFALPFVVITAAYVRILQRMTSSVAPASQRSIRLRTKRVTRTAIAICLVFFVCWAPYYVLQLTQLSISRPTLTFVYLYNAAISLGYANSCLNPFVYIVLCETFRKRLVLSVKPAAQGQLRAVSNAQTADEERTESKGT
# [16] = Vero cell cytotoxicity, dose response, cytotoxicity control for M. tuberculosis growth inhibitor project, Vero cells, purified and synthesized compounds, set 5 (AID 504909); assay type: functional; details: Mycobacterium tuberculosis
# [17] = A Cell Based Secondary Assay to Explore Cytotoxicity in THP-1 Cells of Compounds that Modulate Mycobacterium tuberculosis in Media Containing Glycerol versus Media without Glycerol (2).; assay type: functional
# [18] = Vero cell cytotoxicity, cytotoxicity control for M. tuberculosis inhibitor project, purified and synthesized samples, set 3 (AID 504684); assay type: functional
# [19] = THP-1 cell cytotoxicity, cytotoxicity control, set 4 (AID 504911); assay type: functional; details: Mycobacterium tuberculosis
# [20] = THP-1 cell cytotoxicity, dose response, cytotoxicity control, set 3 (AID 504852); assay type: functional; details: Mycobacterium tuberculosis
# [21] = Vero cell cytotoxicity, dose response, cytotoxicity control for M. tuberculosis growth inhibitor project, Vero cells, purified and synthesized compounds, set 4 (AID 504854); assay type: functional; details: Mycobacterium tuberculosis
# [22] = molecular target: Cyclin-dependent kinase 8 (Homo sapiens, UniProt P49336); experiment: Navigating the Kinome. Panel member name: CDK8; assay type: functional
# Cyclin-dependent kinase 8, sequence (P49336 whole entry): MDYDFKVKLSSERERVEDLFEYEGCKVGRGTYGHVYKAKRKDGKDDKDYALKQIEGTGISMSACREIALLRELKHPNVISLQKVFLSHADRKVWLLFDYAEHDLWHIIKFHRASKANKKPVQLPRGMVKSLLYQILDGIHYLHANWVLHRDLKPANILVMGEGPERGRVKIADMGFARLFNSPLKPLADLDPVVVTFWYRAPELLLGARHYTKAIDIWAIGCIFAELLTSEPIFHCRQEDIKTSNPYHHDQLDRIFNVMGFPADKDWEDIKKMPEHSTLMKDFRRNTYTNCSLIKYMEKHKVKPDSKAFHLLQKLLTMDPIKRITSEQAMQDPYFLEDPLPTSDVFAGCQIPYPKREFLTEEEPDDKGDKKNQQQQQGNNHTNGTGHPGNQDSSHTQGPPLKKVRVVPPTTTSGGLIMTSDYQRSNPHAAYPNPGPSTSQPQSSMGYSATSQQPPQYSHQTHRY
# [23] = molecular target: Cyclin-dependent kinase 9 (Homo sapiens, UniProt P50750); assay type: functional;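 also: value from the CDK9 entry of a kinome-spanning kinase panel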
# Cyclin-dependent kinase 9, sequence (P50750 whole entry): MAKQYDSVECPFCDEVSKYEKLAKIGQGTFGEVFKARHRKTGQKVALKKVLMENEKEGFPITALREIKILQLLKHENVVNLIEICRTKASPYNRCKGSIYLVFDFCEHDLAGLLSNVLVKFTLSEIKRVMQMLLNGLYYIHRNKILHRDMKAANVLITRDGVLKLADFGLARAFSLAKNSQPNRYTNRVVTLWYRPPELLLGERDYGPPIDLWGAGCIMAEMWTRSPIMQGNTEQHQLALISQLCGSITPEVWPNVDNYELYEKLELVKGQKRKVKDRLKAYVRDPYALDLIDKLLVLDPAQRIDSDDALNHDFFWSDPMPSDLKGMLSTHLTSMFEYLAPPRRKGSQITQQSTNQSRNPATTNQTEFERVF
# Cytochrome P450 2C9 = Cytochrome P450 2C9 (Homo sapiens, UniProt P11712)
# Cytochrome P450 2C9, sequence (P11712 whole entry): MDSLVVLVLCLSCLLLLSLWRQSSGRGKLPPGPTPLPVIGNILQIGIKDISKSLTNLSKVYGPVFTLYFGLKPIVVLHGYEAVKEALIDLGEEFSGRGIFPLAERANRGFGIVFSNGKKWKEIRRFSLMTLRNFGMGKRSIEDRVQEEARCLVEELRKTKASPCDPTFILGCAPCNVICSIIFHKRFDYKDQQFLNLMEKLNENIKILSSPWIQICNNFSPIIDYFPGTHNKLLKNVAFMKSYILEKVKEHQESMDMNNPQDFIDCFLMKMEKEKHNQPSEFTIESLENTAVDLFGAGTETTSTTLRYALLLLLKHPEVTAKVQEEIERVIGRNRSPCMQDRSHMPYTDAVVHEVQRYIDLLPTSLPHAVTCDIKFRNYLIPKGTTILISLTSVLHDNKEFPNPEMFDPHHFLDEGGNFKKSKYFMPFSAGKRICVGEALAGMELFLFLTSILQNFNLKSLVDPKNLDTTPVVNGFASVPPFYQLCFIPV
compound,measurement,setting,value
COc1cc(OC)c(C2=NOC(C(=O)O)C2)cc1Cl (configuration not stated),EC50,[1],> 100 µM (inactive)
same,EC50,[2],> 100 µM (inactive)
Cc1[nH]c2ccccc2c1C(=O)CSc1nc2ccccc2[nH]1,CC50,[3],> 50 µM (active)
same,IC50,CHO-K1,> 66.2 µM (inactive)
same,IC50,[4],> 49.8 µM (inactive)
same,IC50,[5],3.42 µM (active)
same,IC50,[6],12.5 µM (inactive)
same,IC50,H9c2,32 µM (inactive)
same,IC50,Orexin receptor type 2 [7],> 88.8 µM (inactive)
same,IC50,Orexin receptor type 2 [8],> 50 µM (inactive)
Oc1c2nc3ccc(F)cc3c-2nc2n1CCS2,AC50,Candida albicans [9],4.72 µM (active)
same,AC50,Candida albicans [10],37.3 µM (active)
same,AC50,NIH3T3,192 µM (active)
CCOc1ccccc1/C=N/NC(=O)c1nnn(-c2nonc2N)c1CN1CCC(C)CC1,AC50,[11],0.0392 µM (active)
same,AC50,[12],< 0.016 µM (active)
same,AC50,[13],65 µM (active)
COc1ccc(Oc2c(C(=O)O)cnn(Cc3cccc4ccccc34)c2=O)cc1,IC50,[14],> 20 µM (inactive)
same,IC50,[15],> 20 µM (inactive)
CN(C(=O)CSc1nc2ccccc2c(=O)[nH]1)C1CCCCC1,CC50,[16],> 100 µM (active)
same,CC50,[17],> 100 µM (active)
same,CC50,[18],> 100 µM (active)
same,CC50,[19],> 97.4 µM (active)
same,CC50,[20],> 100 µM (active)
same,CC50,[21],> 100 µM (active)
COc1ccc(-c2cc(=O)c3c(O)cc(O)cc3o2)cc1 [ACACETIN],Ki,[22],0.631 µM (active)
same,Ki,[23],1.26 µM (active)
same,AC50,Cytochrome P450 2C9,1.26 µM (inconclusive)
